From patent publication US9364479B2, “Use of a receptor-type kinase modulator for treating polycystic kidney disease” (SYMPHONY EVOLUTION, INC., priority 2010, dated 2016)
Where two headings read alike, the source gives them in different places.

Tests used:
[1] = tested on: bpk mice
Excerpt: The BPK model of ARPKD retains the same altered location of EGFR that is seen in murine and human ADPKD. This model is therefore widely accepted as a general means for affecting the EGFR abnormality in PKD, both ARPKD and ADPKD. The BPK model arose as a spontaneous mutation in an inbred colony of BALB/c mice. Homozygous bpk mice develop massively enlarged kidneys and die of renal failure at an average postnatal age of 24 days (PN-24). […] Extra renal manifestations include biliary proliferation and ductal ectasia. Because of the recessive nature of the disease, wild type +/+ and heterozygous bpk/+ mice are phenotypically normal. The primary measurement used in these studies is a comparison of the kidney weight to body weight ratio (KW/BW). […] Additional measurements include assessment of renal function (BUN, creatinine and MUCA) and histological evaluation of kidney size and collecting tubules-cystic index (CT-CI).
These animals were housed in Medical College of Wisconsin vivarium facilities. All animal experiments were conducted in accordance with policies of the NIH Guide for the Care and Use of Laboratory Animals and the Institutional Animal Care and Use Committee of the Medical College of Wisconsin.
Animals were treated from PN-7 through PN-21 and evaluated for extent of disease. The identity of […] animals can be readily determined post-mortem by the presence of greatly enlarged kidneys. On PN-21, the study was terminated and animals were sacrificed. The mass of each animal was determined. Both kidneys from each animal were excised and weighed. The kidney weight to body weight ratio (KW/BW) was determined by the following formula: KW/BW=[mass of both kidneys]/[mass of animal].
In addition, renal cystic index (CI) was calculated. Lectins specific to the proximal tubules (PTs) (lotus tetragonolobus [LTA]) and collecting tubules (CTs) (Dolichos biflorus agglutins [DBA]) were stained and used to assess severity of cystic dilations on a scale from 0-5. Renal function was assessed by obtaining BUN and creatinine levels via cardiac puncture. MUCA was measured after keeping the animals without water for 12 hrs.

[2] = tested on: Dopamine, Non-selective; test: NovaScreen assay; format: binding
[3] = tested on: GABA A, Agonist Site; test: NovaScreen assay; format: binding
[4] = biological target: KDR (Homo sapiens, UniProt P35968); test: Luciferase-coupled chemiluminescence kinase assay; format: biochemical; parameters: residues D807-V1356 of human KDR, Proqinase; purchased Proqinase; details: ATP at Km
Procedure: Dose-response experiments were done using 10 different inhibitor concentrations in 384-well microtiter plates. The ATP concentration used for each assay was equivalent to the Km for each kinase.
A Luciferase-coupled chemiluminescence assay was used to measure EGFR and KDR (VEGFR2) activity. Kinase activity was measured as the percentage of ATP consumed following the kinase reaction using luciferase-luciferin-coupled chemiluminescence. Reactions were conducted in 384-well white, medium-binding microtiter plates (Greiner). […] The reaction mixture was incubated at room temperature for 4 h. Following the kinase reaction, a 20 μL aliquot of Kinase Glo (Promega) was added and luminescence signal was measured using a Victor2 plate reader (Perkin-Elmer). Total ATP consumption was limited to 50%.

[5] = biological target: ErbB2 (Homo sapiens, UniProt P04626); test: Mechanism of action study / Ki determination; format: biochemical; parameters: residues Q679-V1255 of human ErbB2, Proqinase; purchased Proqinase
Procedure: Enzymatic activity was measured by standard methods after dilution of the enzyme-inhibitor complex.

[6] = biological target: c-Kit (Homo sapiens, UniProt P10721); test: AlphaScreen kinase assay; format: biochemical; parameters: Human, T544-; MgCl2, 3 mM MnCl2, 1 mM; V976, N-GST,; GST (N); purchased ProQinase
Procedure: An AlphaScreen tyrosine kinase assay was used to measure ErbB2 and Flt-4 activity. Donor beads coated with streptavidin and acceptor beads coated with PY100 anti-phosphotyrosine antibody (Perkin-Elmer) were used. Biotinylated poly(Glu,Tyr) 4:1 was used as the substrate. Substrate phosphorylation was measured by luminescence following donor-acceptor bead addition followed by complex formation. Test compound, 3 μmol/L ATP, 3 nmol/L biotinylated poly(Glu,Tyr) 4:1, and 1 nmol/L ErbB2 (residues Q679-V1255 of human ErbB2, Proqinase) or Flt-4 (residues D725-R1298 of human Flt-4, Proqinase) were combined in a volume of 20 μL Assay Buffer (20 mM TrisHCl, pH 7.5, 10 mM MgCl2, 3 mM MnCl2, 1 mM DTT, 0.01% Triton) in a 384-well white, medium-binding microtiter plate (Greiner). Reaction mixtures were incubated for 1 h at room temperature. Reactions were quenched by addition of 10 μL of 15 to 30 μg/mL AlphaScreen bead suspension containing 75 mmol/L HEPES (pH 7.4), 300 mmol/L NaCl, 120 mmol/L EDTA, 0.3% bovine serum albumin, and 0.03% Tween 20. After 2 to 16 h of incubation at room temperature, plates were read using an AlphaQuest reader (Perkin-Elmer).
Further screening was performed using the biochemical assay methods of Example 2. Additional description of the components and concentrations are summarized in Table 8, Table 9, and Table 10, below.

[7] = 7.5 mg/kg/day, PN Day 21, 7.5 mg/kg/day
[8] = 7.5 mg/kg/day, PN Day 21, listed as PRIM-001, 7.5 mg/kg/day

Sequence of ErbB2 (P04626 679-1255): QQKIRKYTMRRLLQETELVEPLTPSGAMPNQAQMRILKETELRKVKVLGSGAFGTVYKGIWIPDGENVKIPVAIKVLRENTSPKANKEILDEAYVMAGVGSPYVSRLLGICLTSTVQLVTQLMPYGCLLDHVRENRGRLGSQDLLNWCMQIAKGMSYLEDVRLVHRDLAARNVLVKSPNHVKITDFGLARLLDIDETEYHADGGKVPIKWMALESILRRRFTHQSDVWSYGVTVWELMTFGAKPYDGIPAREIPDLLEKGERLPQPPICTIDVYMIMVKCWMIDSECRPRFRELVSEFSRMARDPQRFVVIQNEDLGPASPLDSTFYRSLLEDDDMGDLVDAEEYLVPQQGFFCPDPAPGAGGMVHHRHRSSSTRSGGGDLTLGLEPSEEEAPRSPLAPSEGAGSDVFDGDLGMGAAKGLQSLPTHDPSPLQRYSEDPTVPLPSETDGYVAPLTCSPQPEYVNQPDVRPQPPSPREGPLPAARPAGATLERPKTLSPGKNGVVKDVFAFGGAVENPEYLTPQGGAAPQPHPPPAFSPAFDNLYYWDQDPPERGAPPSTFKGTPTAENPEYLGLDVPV
Sequence of KDR (P35968 807-1356): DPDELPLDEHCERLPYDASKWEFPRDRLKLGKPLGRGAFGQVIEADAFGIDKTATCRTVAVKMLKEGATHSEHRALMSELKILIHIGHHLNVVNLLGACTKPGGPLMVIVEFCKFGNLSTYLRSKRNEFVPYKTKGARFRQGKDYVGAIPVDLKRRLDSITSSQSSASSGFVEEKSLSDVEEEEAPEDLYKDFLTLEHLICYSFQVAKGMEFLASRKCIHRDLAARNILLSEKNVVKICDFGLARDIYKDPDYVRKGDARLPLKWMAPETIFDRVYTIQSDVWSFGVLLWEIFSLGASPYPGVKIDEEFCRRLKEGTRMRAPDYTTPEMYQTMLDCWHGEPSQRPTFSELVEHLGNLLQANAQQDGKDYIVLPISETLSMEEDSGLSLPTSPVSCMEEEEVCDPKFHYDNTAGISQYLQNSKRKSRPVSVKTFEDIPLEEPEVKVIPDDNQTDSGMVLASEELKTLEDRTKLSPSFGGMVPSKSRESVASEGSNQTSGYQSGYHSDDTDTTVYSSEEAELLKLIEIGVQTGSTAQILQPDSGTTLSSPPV
Sequence of c-Kit (P10721 544-976): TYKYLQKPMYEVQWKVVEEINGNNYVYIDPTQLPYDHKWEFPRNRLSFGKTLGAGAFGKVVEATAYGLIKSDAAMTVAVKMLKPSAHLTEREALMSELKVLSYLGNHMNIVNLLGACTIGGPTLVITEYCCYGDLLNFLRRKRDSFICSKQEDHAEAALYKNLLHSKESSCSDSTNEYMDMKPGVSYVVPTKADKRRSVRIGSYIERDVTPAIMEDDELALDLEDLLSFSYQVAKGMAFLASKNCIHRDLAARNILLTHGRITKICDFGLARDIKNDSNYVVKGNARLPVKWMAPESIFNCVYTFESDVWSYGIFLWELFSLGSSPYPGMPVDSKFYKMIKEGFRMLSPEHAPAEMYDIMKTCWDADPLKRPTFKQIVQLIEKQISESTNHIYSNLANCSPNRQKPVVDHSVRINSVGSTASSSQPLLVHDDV

`COc1cc2c(Nc3ccc(Cl)c(Cl)c3F)ncnc2cc1OC[C@@H]1C[C@@H]2CN(C)C[C@@H]2C1` [XL-647, N-(3,4-dichloro-2-fluorophenyl)-7-({[(3aR,5r,6aS)-2-methyloctahydrocyclopenta[c]pyrrol-5-yl]methyl}oxy)-6-(methyloxy)quinazolin-4-amine] was tested, and the “decrease of CT-CI” value ([1]; 7.5 mg/kg q.d.) was 25%, the “decrease of KW/BW” value ([1]; 7.5 mg/kg q.d.) was 21.5% and the decrease of creatinine ([1]; 7.5 mg/kg q.d.) was 8.3%. The “improvement of MUCA” value ([1]; 7.5 mg/kg q.d.) was 20.1%, the “reduction of kidney weight” value ([1]; 7.5 mg/kg q.d.) was 21.8% and the “decrease of BUN” value ([1]; 7.5 mg/kg q.d., 7.5 mg/kg) was 42%. The BUN ([1]; 7.5 mg/kg/day, PN Day 21) was 63.43 mg/dL, the CT-CI ([1]; 7.5 mg/kg/day, PN Day 21) was 3.60 and the Creatinine ([1]; 7.5 mg/kg/day, PN Day 21) was 0.44 mg/dL. For the same molecule, the MUCA ([1]; 7.5 mg/kg/day, PN Day 21) was 560.0 mOsmol, the “Kidney Weight” value [1, 7] was 1.61 ± 0.23 g and the Kidney/Body weight [1, 7] was 15.34±1.26%. For the same molecule, the “Kidney Weight” value [1, 8] was 1.61 g, the Kidney/Body weight [1, 8] was 15.34% and the “decrease of BUN” value ([1]; 15 mg/kg q.d.) was 60.5%. The “decrease of CT-CI” value ([1]; 15 mg/kg q.d.) was 45.8%, the decrease of creatinine ([1]; 15 mg/kg q.d.) was 25% and the “improvement of MUCA” value ([1]; 15 mg/kg q.d.) was 66.2%. The “reduction of kidney weight” value ([1]; 15 mg/kg q.d.) was 40.3%, the BUN ([1]; 15 mg/kg/day, PN Day 21) was 43.20 mg/dL and the CT-CI ([1]; 15 mg/kg/day, PN Day 21) was 2.60. The Creatinine ([1]; 15 mg/kg/day, PN Day 21) was 0.36 mg/dL, the Kidney/Body weight ([1]; 15 mg/kg/day, PN Day 21) was 12.36% and the MUCA ([1]; 15 mg/kg/day, PN Day 21) was 775.0 mOsmol. The “Kidney Weight” value ([1]; 15 mg/kg/day, PN Day 21, 15 mg/kg/day) was 1.28 ± 0.09 g, the “Kidney Weight” value ([1]; 15 mg/kg/day, PN Day 21, listed as PRIM-001, 15 mg/kg/day) was 1.28 g and the “Inhibition, 10 μM XL-647” value [2] was 34.88%. For the same molecule, the “Inhibition, 10 μM XL-647” value [3] was 1.07%, the IC50 [4] was 1.5 ± 0.2 nM and the ATP-Competitive [5] was “Yes”. For the same molecule, the Ki [5] was 3 nM, the Reversible [5] was “Yes” and the IC50 [6] was 132 ± 8.2 nM.
